In patent EP4635500A1, “THERAPEUTIC AGENT FOR BACTERIAL INFECTION” (Sumitomo Pharma Co., Ltd., priority 2022, dated 2024):

What was measured:
P. aeruginosa = assay: MIC, broth microdilution, CDC/FDA Antibiotic Resistance Isolate Bank (Example 7, Tables 10, 15); assay type: cell-based
53 CRE and CPE strains = assay: MICrange, MIC50, MIC80, MIC90 for 53 bacterial isolates (Example 5, Table 5); assay type: cell-based; settings: 53 bacterial isolates
[1] = 26 metallo-carbapenemase-producing P. aeruginosa strains, β-lactamase inhibitor µg/mL in parentheses
[2] = 96 strains of P. aeruginosa, β-lactamase inhibitor µg/mL in parentheses

Substance: colistin
- MIC against 26 metallo-carbapenemase-producing strains MIC50 (P. aeruginosa; [1]): 1 µg(mL)
- MIC against 26 metallo-carbapenemase-producing strains MIC80 (P. aeruginosa; [1]): 1 µg(mL)
- MIC against 26 metallo-carbapenemase-producing strains MIC90 (P. aeruginosa; [1]): 1 µg(mL)
- MIC against 26 metallo-carbapenemase-producing strains MICrange (P. aeruginosa; [1]): 0.5 - 2 µg(mL)
- MIC against 96 strains of P. aeruginosa MIC50 (P. aeruginosa; [2]): 1 µg(mL)
- MIC against 96 strains of P. aeruginosa MIC80 (P. aeruginosa; [2]): 1 µg(mL)
- MIC against 96 strains of P. aeruginosa MIC90 (P. aeruginosa; [2]): 1 µg(mL)
- MIC against 96 strains of P. aeruginosa MICrange (P. aeruginosa; [2]): 0.25 - 2 µg(mL)
- MIC (P. aeruginosa; P. aeruginosa KUB No. 579, AR Bank # 447): 1 µg/mL
- MIC (P. aeruginosa; P. aeruginosa KUB No. 5083, AR Bank # 250): 1 µg/mL
- MIC (P. aeruginosa; P. aeruginosa KUB No. 5551, AR Bank # 54): 2 µg/mL
- MIC (P. aeruginosa; P. aeruginosa KUB No. 5561, AR Bank # 64): 1 µg/mL
- MIC (P. aeruginosa; P. aeruginosa KUB No. 5587, AR Bank # 90): 1 µg/mL
- MIC (P. aeruginosa; P. aeruginosa KUB No. 5589, AR Bank # 92): 1 µg/mL
- MIC (P. aeruginosa; P. aeruginosa KUB No. 5591, AR Bank # 94): 1 µg/mL
- MIC (P. aeruginosa; P. aeruginosa KUB No. 5592, AR Bank # 95): 1 µg/mL
- MIC (P. aeruginosa; P. aeruginosa KUB No. 5597, AR Bank # 100): 1 µg/mL
- MIC (P. aeruginosa; P. aeruginosa KUB No. 5600, AR Bank # 103): 1 µg/mL
- MIC (P. aeruginosa; P. aeruginosa KUB No. 5602, AR Bank # 105): 1 µg/mL
- MIC (P. aeruginosa; P. aeruginosa KUB No. 5605, AR Bank # 108): 1 µg/mL
- MIC (P. aeruginosa; P. aeruginosa KUB No. 5607, AR Bank # 110): 1 µg/mL
- MIC (P. aeruginosa; P. aeruginosa KUB No. 5608, AR Bank # 111): 1 µg/mL
- MIC (P. aeruginosa; P. aeruginosa KUB No. 5662, AR Bank # 229): 1 µg/mL
- MIC (P. aeruginosa; P. aeruginosa KUB No. 5663, AR Bank # 230): 1 µg/mL
- MIC (P. aeruginosa; P. aeruginosa KUB No. 5664, AR Bank # 231): 1 µg/mL
- MIC (P. aeruginosa; P. aeruginosa KUB No. 5665, AR Bank # 232): 1 µg/mL
- MIC (P. aeruginosa; P. aeruginosa KUB No. 5666, AR Bank # 23): 1 µg/mL
- MIC (P. aeruginosa; P. aeruginosa KUB No. 5667, AR Bank # 234): 1 µg/mL
- MIC (P. aeruginosa; P. aeruginosa KUB No. 5668, AR Bank # 235): 0.5 µg/mL
- MIC (P. aeruginosa; P. aeruginosa KUB No. 5669, AR Bank # 236): 1 µg/mL
- MIC (P. aeruginosa; P. aeruginosa KUB No. 5670, AR Bank # 237): 0.5 µg/mL
- MIC (P. aeruginosa; P. aeruginosa KUB No. 5671, AR Bank # 238): 1 µg/mL
- MIC (P. aeruginosa; P. aeruginosa KUB No. 5672, AR Bank # 239): 1 µg/mL
- MIC (P. aeruginosa; P. aeruginosa KUB No. 5673, AR Bank # 240): 1 µg/mL
- MIC (P. aeruginosa; P. aeruginosa KUB No. 5674, AR Bank # 241): 1 µg/mL
- MIC (P. aeruginosa; P. aeruginosa KUB No. 5675, AR Bank # 242): 0.5 µg/mL
- MIC (P. aeruginosa; P. aeruginosa KUB No. 5676, AR Bank # 243): 1 µg/mL
- MIC (P. aeruginosa; P. aeruginosa KUB No. 5677, AR Bank # 244): 1 µg/mL
- MIC (P. aeruginosa; P. aeruginosa KUB No. 5678, AR Bank # 245): 1 µg/mL
- MIC (P. aeruginosa; P. aeruginosa KUB No. 5679, AR Bank # 246): 0.5 µg/mL
- MIC (P. aeruginosa; P. aeruginosa KUB No. 5680, AR Bank # 247): 0.5 µg/mL
- MIC (P. aeruginosa; P. aeruginosa KUB No. 5681, AR Bank # 248): 1 µg/mL
- MIC (P. aeruginosa; P. aeruginosa KUB No. 5682, AR Bank # 249): 0.5 µg/mL
- MIC (P. aeruginosa; P. aeruginosa KUB No. 5684, AR Bank # 251): 0.5 µg/mL
- MIC (P. aeruginosa; P. aeruginosa KUB No. 5685, AR Bank # 252): 1 µg/mL
- MIC (P. aeruginosa; P. aeruginosa KUB No. 5686, AR Bank # 253): 1 µg/mL
- MIC (P. aeruginosa; P. aeruginosa KUB No. 5687, AR Bank # 254): 1 µg/mL
- MIC (P. aeruginosa; P. aeruginosa KUB No. 5688, AR Bank # 255): 1 µg/mL
- MIC (P. aeruginosa; P. aeruginosa KUB No. 5689, AR Bank # 256): 0.5 µg/mL
- MIC (P. aeruginosa; P. aeruginosa KUB No. 5690, AR Bank # 257): 1 µg/mL
- MIC (P. aeruginosa; P. aeruginosa KUB No. 5691, AR Bank # 258): 0.5 µg/mL
- MIC (P. aeruginosa; P. aeruginosa KUB No. 5692, AR Bank # 259): 1 µg/mL
- MIC (P. aeruginosa; P. aeruginosa KUB No. 5693, AR Bank # 260): 1 µg/mL
- MIC (P. aeruginosa; P. aeruginosa KUB No. 5694, AR Bank # 261): 1 µg/mL
- MIC (P. aeruginosa; P. aeruginosa KUB No. 5695, AR Bank # 262): 1 µg/mL
- MIC (P. aeruginosa; P. aeruginosa KUB No. 5696, AR Bank # 263): 0.5 µg/mL
- MIC (P. aeruginosa; P. aeruginosa KUB No. 5697, AR Bank # 264): 1 µg/mL
- MIC (P. aeruginosa; P. aeruginosa KUB No. 5698, AR Bank # 265): 1 µg/mL
- MIC (P. aeruginosa; P. aeruginosa KUB No. 5699, AR Bank # 266): 1 µg/mL
- MIC (P. aeruginosa; P. aeruginosa KUB No. 5700, AR Bank # 267): 1 µg/mL
- MIC (P. aeruginosa; P. aeruginosa KUB No. 5701, AR Bank # 268): 1 µg/mL
- MIC (P. aeruginosa; P. aeruginosa KUB No. 5702, AR Bank # 269): 1 µg/mL
- MIC (P. aeruginosa; P. aeruginosa KUB No. 5703, AR Bank # 270): 1 µg/mL
- MIC (P. aeruginosa; P. aeruginosa KUB No. 5704, AR Bank # 271): 1 µg/mL
- MIC (P. aeruginosa; P. aeruginosa KUB No. 5705, AR Bank # 272): 1 µg/mL
- MIC (P. aeruginosa; P. aeruginosa KUB No. 5747, AR Bank # 351): 1 µg/mL
- MIC (P. aeruginosa; P. aeruginosa KUB No. 5748, AR Bank # 352): 0.5 µg/mL
- MIC (P. aeruginosa; P. aeruginosa KUB No. 5749, AR Bank # 353): 0.5 µg/mL
- MIC (P. aeruginosa; P. aeruginosa KUB No. 5750, AR Bank # 354): 1 µg/mL
- MIC (P. aeruginosa; P. aeruginosa KUB No. 5751, AR Bank # 355): 1 µg/mL
- MIC (P. aeruginosa; P. aeruginosa KUB No. 5752, AR Bank # 356): 0.5 µg/mL
- MIC (P. aeruginosa; P. aeruginosa KUB No. 5753, AR Bank # 357): 1 µg/mL
- MIC (P. aeruginosa; P. aeruginosa KUB No. 5754, AR Bank # 358): 1 µg/mL
- MIC (P. aeruginosa; P. aeruginosa KUB No. 5755, AR Bank # 359): 1 µg/mL
- MIC (P. aeruginosa; P. aeruginosa KUB No. 5756, AR Bank # 360): 1 µg/mL
- MIC (P. aeruginosa; P. aeruginosa KUB No. 5785, AR Bank # 439): 0.5 µg/mL
- MIC (P. aeruginosa; P. aeruginosa KUB No. 5786, AR Bank # 440): 1 µg/mL
- MIC (P. aeruginosa; P. aeruginosa KUB No. 5787, AR Bank # 441): 0.5 µg/mL
- MIC (P. aeruginosa; P. aeruginosa KUB No. 5788, AR Bank # 443): 1 µg/mL
- MIC (P. aeruginosa; P. aeruginosa KUB No. 5789, AR Bank # 444): 1 µg/mL
- MIC (P. aeruginosa; P. aeruginosa KUB No. 5790, AR Bank # 445): 1 µg/mL
- MIC (P. aeruginosa; P. aeruginosa KUB No. 5793, AR Bank # 449): 1 µg/mL
- MIC (P. aeruginosa; P. aeruginosa KUB No. 5798, AR Bank # 455): 0.25 µg/mL
- MIC (P. aeruginosa; P. aeruginosa KUB No. 5799, AR Bank # 456): 1 µg/mL
- MIC (P. aeruginosa; P. aeruginosa KUB No. 5800, AR Bank # 457): 0.5 µg/mL
- MIC (P. aeruginosa; P. aeruginosa KUB No. 5801, AR Bank # 458): 0.5 µg/mL
- MIC (P. aeruginosa; P. aeruginosa KUB No. 5802, AR Bank # 459): 0.5 µg/mL
- MIC (P. aeruginosa; P. aeruginosa KUB No. 5804, AR Bank # 862): 1 µg/mL
- MIC (P. aeruginosa; P. aeruginosa KUB No. 5805, AR Bank # 863): 1 µg/mL
- MIC (P. aeruginosa; P. aeruginosa KUB No. 5806, AR Bank # 864): 1 µg/mL
- MIC (P. aeruginosa; P. aeruginosa KUB No. 5813, AR Bank # 508): 0.0005 µg/mL
- MIC (P. aeruginosa; P. aeruginosa KUB No. 5814, AR Bank # 509): 0.001 µg/mL
- MIC (P. aeruginosa; P. aeruginosa KUB No. 5815, AR Bank # 510): 0.0005 µg/mL
- MIC (P. aeruginosa; P. aeruginosa KUB No. 5816, AR Bank # 511): 0.0005 µg/mL
- MIC (P. aeruginosa; P. aeruginosa KUB No. 5817, AR Bank # 512): 0.001 µg/mL
- MIC (P. aeruginosa; P. aeruginosa KUB No. 5818, AR Bank # 513): 0.001 µg/mL
- MIC (P. aeruginosa; P. aeruginosa KUB No. 5819, AR Bank # 514): 0.001 µg/mL
- MIC (P. aeruginosa; P. aeruginosa KUB No. 5820, AR Bank # 515): 0.001 µg/mL
- MIC (P. aeruginosa; P. aeruginosa KUB No. 5821, AR Bank # 516): 0.001 µg/mL
- MIC (P. aeruginosa; P. aeruginosa KUB No. 5823, AR Bank # 518): 0.001 µg/mL
- MIC (P. aeruginosa; P. aeruginosa KUB No. 5831, AR Bank # 526): 0.001 µg/mL
- MIC (P. aeruginosa; P. aeruginosa KUB No. 5832, AR Bank # 527): 0.0005 µg/mL
- MIC (P. aeruginosa; P. aeruginosa KUB No. 5833, AR Bank # 528): 0.001 µg/mL
- MIC (P. aeruginosa; P. aeruginosa KUB No. 5834, AR Bank # 529): 0.001 µg/mL
- MIC50 (53 CRE and CPE strains): 0.5 µg/mL
- MIC80 (53 CRE and CPE strains): 1 µg/mL
- MIC90 (53 CRE and CPE strains): 32 µg/mL
